# Measurements as given in patent US20160046616A1, “NRF2 SMALL MOLECULE INHIBITORS FOR CANCER THERAPY” (THE JOHNS HOPKINS UNIVERSITY, priority 2013, published 2016).
# “Also recorded” adds a separate entry of the source.
# Experiments:
# [1] = molecular target: T1, Nrf2-MAFG protein complex binding to fluorescein labeled ARE oligos (Homo sapiens, UniProt Q16236); experiment: Fluorescence polarization (FP) assay of DNA binding; assay type: biochemical; conditions: increasing concentration of Nrf2 inhibitor
# T1 construct: made in house
# T1 sequence (Q16236 1-605): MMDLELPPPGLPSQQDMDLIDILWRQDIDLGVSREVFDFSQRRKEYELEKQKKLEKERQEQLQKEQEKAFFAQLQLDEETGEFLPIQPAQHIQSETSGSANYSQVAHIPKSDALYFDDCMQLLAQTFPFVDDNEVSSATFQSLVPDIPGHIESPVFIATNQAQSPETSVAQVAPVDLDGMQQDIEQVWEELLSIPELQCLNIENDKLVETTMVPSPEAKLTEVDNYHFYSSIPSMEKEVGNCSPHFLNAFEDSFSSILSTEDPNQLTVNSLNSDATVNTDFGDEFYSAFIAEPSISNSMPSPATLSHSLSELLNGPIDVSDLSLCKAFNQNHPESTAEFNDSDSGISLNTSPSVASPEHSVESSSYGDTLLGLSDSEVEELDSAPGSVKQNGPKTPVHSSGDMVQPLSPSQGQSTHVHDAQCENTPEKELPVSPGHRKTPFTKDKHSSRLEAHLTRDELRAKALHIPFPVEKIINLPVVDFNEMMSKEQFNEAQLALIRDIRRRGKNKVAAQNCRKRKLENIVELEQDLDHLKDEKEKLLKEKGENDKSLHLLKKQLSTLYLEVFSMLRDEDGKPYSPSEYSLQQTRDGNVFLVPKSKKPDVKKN
# Method: To determine if the presently disclosed small molecule inhibitors were specifically interacting with Nrf2 or the Nrf2-MAF protein complex, a fluorescence polarization assay was developed. Ammonium aurintricarboxylate, a potent inhibitor of protein-nucleic acid interactions was used as positive control in the assay. The concentration of budesonide was 10 μM in the assay.
# FP assay data showing inhibition of binding of Nrf2-MAFG protein complex to fluorescein labeled ARE oligos in the presence of compound 1 (FIG. 2), compound 4 (FIG. 3), and compound 3 (FIG. 4) are shown. Ammonium aurintricarboxylate (ATA-10 μM), a well-known inhibitor of DNA binding activity, was included as positive control. […] X-axis represents increasing concentration of Nrf2 inhibitor.
# Briefly, fluorescein-labeled oligonucleotides corresponding to Anti-oxidant Response Element (ARE) were diluted to the appropriate concentration in PBS. Nrf2/MafG heterodimer was prepared by gel filtration with mixed samples of purified Nrf2 and MafG proteins. MafG/Nrf2 complex was then diluted with the buffer containing Nrf2 inhibitors or buffer only to the appropriate starting concentration and then serially diluted and incubated at 4° C. for 1 h. A mixture containing fluorescein-labeled ARE and purified protein sample was incubated at 4° C. for another 1 h. After pre-warming samples to 25° C. for 2 to 3 min, fluorescence anisotropy and total intensity was measured for each dilution using a FlexStation 3 (Molecular Devices, LLC) in Basic Binding Assay-FP mode. Ammonium aurintricarboxylate (ATA-10 μM), a well-known inhibitor of DNA binding activity, was included as positive control.
# [2] = test system: A549 xenograft tumors; experiment: A549 lung cancer xenograft assay (flank); assay type: in vivo, athymic nude mice; conditions: for A549 tumor weight at end of treatment, combination with carboplatin / A549 tumor weight at end of treatment, single agent: compared to vehicle group; for Growth of A549 xenograft tumors, combination with carboplatin / Growth of A549 xenograft tumors, single agent: nude mice, flank; for Growth of A549 xenograft tumors, single agent / Efficacy of compound alone relative to carboplatin, A549 tumors: single agent
# Method: A549 cells were injected in the flanks of athymic nude mice and once tumor volume reached 50-100 mm^3, treatment was initiated. Vehicle, carboplatin (5 mg/kg daily Monday to Friday), compound 4 (30 mg/kg daily Monday to Friday) or a combination of compound 4 and carboplatin was administered for three weeks. Values represent tumor volume ±s.e.m. for all groups (A). […] Tumors were excised and weight at the end of treatment period. […] For each group, pretreatment available lung volume was defined as 100% and compared with post-treatment lung volumes. Mice in the vehicle treated group died at 3 weeks;
# (§1) A549 cells were injected in the flanks of athymic nude mice and once tumor volume reached 50-100 mm^3, treatment was initiated. Vehicle, carboplatin (20 mg/kg; 2 days/week), compound#1 (20 mg/kg 4 days/week) or a combination of compound 1 and carboplatin was administered for four weeks. Values represent tumor volume ±s.e.m. for all groups. […] Tumors were excised and weight at the end of treatment period. […] H460 cells were injected in the flanks of athymic nude mice and once tumor volume reached 50-100 mm^3, treatment was initiated. Vehicle, carboplatin (10 mg/kg; 5 days/week), compound 1 (30 mg/kg 5 days/week) or a combination of compound 1 and carboplatin was administered for three weeks. Values represent tumor volume ±s.e.m.;
# A549 cells were injected in the flanks of athymic nude mice and once tumor volume reached 50-100 mm^3, treatment was initiated. Vehicle, carboplatin (10 mg/kg; 5 days/week), compound 3 (60 mg/kg 4 days/week) or a combination of compound 3 and carboplatin was administered for 15 days. Tumor growth was monitored till 28 days. Values represent tumor volume ±s.e.m. for all groups. […] Values represent tumor volume ±s.e.m.;
# (§2) For the A549 lung cancer xenograft assay, five million cells in 100 μL of PBS were implanted in the flank of nude mice. Two to three weeks post cell implantation, when the tumors were about 50 to 100 mm^3 in dimension, the mice were randomly divided into four groups: vehicle, chemotherapeutic drug, Nrf2 inhibitor, and chemotherapeutic drug with an Nrf2 inhibitor. The mice were treated with the drugs for 2 to 4 weeks. Tumor volume was recorded biweekly.
# [3] = test system: H460 xenograft tumors; experiment: H460 lung cancer xenograft assay (flank); assay type: in vivo, athymic nude mice; conditions: for Growth of H460 xenograft tumors, combination with carboplatin / Growth of H460 xenograft tumors, single agent: nude mice
# Method: For each group, pretreatment available lung volume was defined as 100% and compared with post-treatment lung volumes.
# as §1
# as §2, with “H460” for “A549”, “two” for “five”, “One week” for “Two to three weeks”, “inhibitor” for “inhibitor,”
# [4] = test system: Rhabdomyosarcoma cells (Rh30); experiment: Growth of rhabdomyosarcoma cells (clonogenic / soft agar); assay type: cell-based; conditions: for Growth of rhabdomyosarcoma cells, clonogenic assay, single agent: single agents
# Method: (A) Ewing sarcoma cells (A4573) cells were on soft agar and treated with doxorubicin (2 nM) singly or in combination with compound 4 (10 μM) for 72 h. At the end of treatment, regular growth media was added and cells were further incubated for 8-10 days and colonies were stained with crystal violet and counted. (B) Rhabdomyosarcoma cells (Rh30) cells were on soft agar and treated with doxorubicin (2 nM) and etoposide (5-nM) singly or in combination with compound 4 (10 μM) for 72 h. At the end of treatment, regular growth media was added and cells were further incubated for 8-10 days and colonies were stained with crystal violet and counted;
# For the clonogenic assays, 1,000 cells/well were plated in a 6-well plate. The next day, the cells were treated with vehicle (DMSO), Nrf2 inhibitor, a chemotherapeutic drug, or a combination of Nrf2 and chemotherapeutic drugs for 48 hrs. The drug containing media was then replaced with regular growth media and the cells were incubated for an additional 10 days. At the end of incubation period, the colonies were stained with Crystal Violet and imaged.
Binding of Nrf2-MAFG protein complex to fluorescein labeled ARE oligos [1],SMILES,"A549 tumor weight at end of treatment, combination with carboplatin [2]","A549 tumor weight at end of treatment, single agent [2]","Growth of A549 xenograft tumors, combination with carboplatin [2]","Growth of A549 xenograft tumors, single agent [2]","Efficacy of compound alone relative to carboplatin, A549 tumors [2]","Growth of H460 xenograft tumors, combination with carboplatin [3]","Growth of rhabdomyosarcoma cells, clonogenic assay, single agent [4]","A549 tumor growth at Day 43, 4 weeks from the end of treatment, combination with carboplatin ([2]; compound 60 mg/kg 4 days/week + carboplatin 10 mg/kg 5 days/week for 15 days)","Growth of H460 xenograft tumors, single agent ([3]; single agent)","Growth of H460 xenograft tumors, combination with carboplatin ([3]; listed as ML385)","Efficacy of compound alone relative to carboplatin, H460 tumors ([3]; single agent)","Colony growth of Rh30 cells on soft agar, combination ([4]; 10 μM with doxorubicin (2 nM) and etoposide, 72 h)","Colony growth of Rh30 cells on soft agar, single agent ([4]; 10 μM, 72 h)"
Dose dependent reduction in binding,O=C(Nc1ncc(Cc2ccc(C(F)(F)F)cc2)s1)c1ccc(-c2cccc([N+](=O)[O-])c2)o1 [Compound 1],significantly reduced tumor weight,significantly reduced tumor weight,showed inhibition of A549 xenograft tumors; also recorded: sensitized A549 lung tumors to carboplatin therapy,showed inhibition of A549 xenograft tumors; also recorded: shows anti-tumor activity as a single agent,comparable to carboplatin,shows anti-tumor efficacy in combination with carboplatin,suppress growth of rhabdomyosarcoma cells,–,–,–,–,–,–
Dose dependent reduction in binding,CC1(C)CC2CC(C)(CN2S(=O)(=O)c2ccc(C(=O)Nc3ccc(Cl)c(S(=O)(=O)N4CCOCC4)c3)cc2)C1 (centres unmarked) [compound 3],–,–,inhibited the growth; also recorded: sensitized A549 lung tumors to carboplatin therapy,inhibited the growth; also recorded: significantly attenuated tumor growth till 28 days,comparable to carboplatin,inhibited the growth,suppress growth of rhabdomyosarcoma cells,significant growth retardation as compared to group treated with single agent,inhibited the growth,–,–,–,–
Dose dependent reduction in binding,Cc1ccccc1C(=O)N1CCc2cc(-c3nc(NC(=O)Cc4ccc5c(c4)OCO5)sc3C)ccc21 [compound 4],significantly reduced tumor weight,significantly reduced tumor weight,tumor size and tumor weight was reduced; also recorded: sensitized A549 lung tumors to carboplatin therapy,tumor size and tumor weight was reduced; also recorded: shows anti-tumor activity as a single agent,comparable to carboplatin,sensitized H460 lung tumors to carboplatin drug therapy,suppress growth of rhabdomyosarcoma cells,–,significant reduction in tumor volume and weight,significant reduction in tumor volume and weight,comparable to carboplatin,potentiates the cytotoxicity of standard care chemotherapy drugs,significant growth inhibitory activity as single agent
